From the supplement of paper PMC10307832

Columns and labels:
Assay in all cases: relative viability (nuclei count vs DMSO), 5 days (fraction); higher = more cells survive
[1] = compound: CC(=O)Nc1cccc(-n2c(=O)n(C3CC3)c(=O)c3c(Nc4ccc(I)cc4F)n(C)c(=O)c(C)c32)c1 [Trametinib] + CS(=O)(=O)CCNCc1ccc(-c2ccc3ncnc(Nc4ccc(OCc5cccc(F)c5)c(Cl)c4)c3c2)o1 [Lapatinib] (partner 2 µM)
Method in brief: (§1)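 Nuclei were stained with Hoechst during a one-step fixation (final 0.05% Triton X-100, 1% formaldehyde, 1 ug/ml Hoechst) carried out 5 days after dosing, then counted on 4× images. The cells, lung cancer lines in 1536-well plates, had been dosed by pin tool the day after seeding with one drug alone or a fixed anchor-drug dose plus five library-drug doses (not always all listed) in √10 steps. Relative viability is the nuclei count in treated wells divided by that in vehicle wells, and each value is the median of duplicate plates.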

[2] = compound: CN1C=C(C2=CC=CC=C21)/C=C\3/C4=C(C=CC=N4)NC3=O + CS(=O)(=O)N1CCN(Cc2cc3nc(-c4cccc5[nH]ncc45)nc(N4CCOCC4)c3s2)CC1 [Pictilisib] (partner 1 µM)
Method in brief: as §1

[3] = compound: CN1C=C(C2=CC=CC=C21)/C=C\3/C4=C(C=CC=N4)NC3=O + C[C@@H](Oc1cc(-c2cnn(C3CCNCC3)c2)cnc1N)c1c(Cl)ccc(F)c1Cl [Crizotinib] (partner 1 µM)
Method in brief: as §1

[4] = compound: CN1C=C(C2=CC=CC=C21)/C=C\3/C4=C(C=CC=N4)NC3=O + O=C(CCCCCCC(=O)Nc1ccccc1)NO [Vorinostat] (partner 1 µM)
Method in brief: as §1

| Cell Line | relative viability ([1]; first compound 0.0025 µM) | relative viability ([1]; first compound 0.007906 µM) | relative viability ([1]; first compound 0.025 µM) | relative viability ([1]; first compound 0.07906 µM) | relative viability ([1]; first compound 0.25 µM) | relative viability ([2]; first compound 0.02 µM) | relative viability ([2]; first compound 0.06325 µM) | relative viability ([2]; first compound 0.2 µM) | relative viability ([2]; first compound 0.6325 µM) | relative viability ([2]; first compound 2 µM) | relative viability ([3]; first compound 0.02 µM) | relative viability ([3]; first compound 0.06325 µM) | relative viability ([3]; first compound 0.2 µM) | relative viability ([3]; first compound 0.6325 µM) | relative viability ([3]; first compound 2 µM) | relative viability ([4]; first compound 0.02 µM) | relative viability ([4]; first compound 0.06325 µM) | relative viability ([4]; first compound 0.2 µM) | relative viability ([4]; first compound 0.6325 µM) | relative viability ([4]; first compound 2 µM) |
| --- | --- | --- | --- | --- | --- | --- | --- | --- | --- | --- | --- | --- | --- | --- | --- | --- | --- | --- | --- | --- |
| NCI-H1975 | 0.816 | 0.725 | 0.534 | 0.385 | 0.292 | 0.297 | 0.255 | 0.251 | 0.246 | 0.246 | 0.749 | 0.939 | 0.915 | 0.817 | 0.796 | 0.775 | 0.745 | 0.708 | 0.725 | 0.668 |
| NCI-H1993 | 0.824 | 0.909 | 0.651 | 0.648 | 0.682 | 0.743 | 0.772 | 0.826 | 0.809 | 0.804 | 0.726 | 0.816 | 0.741 | 0.868 | 0.87 | 0.837 | 0.736 | 0.647 | 0.622 | 0.6 |
| NCI-H2009 | 0.841 | 0.612 | 0.225 | 0.343 | 0.236 | 0.804 | 0.672 | 0.682 | 0.8 | 0.792 | 0.958 | 0.97 | 1.05 | 1.15 | 1.14 | 0.69 | 0.671 | 0.748 | 0.766 | 0.683 |
| NCI-H2023 | 0.947 | 0.356 | 0.383 | 0.579 | 0.181 | 0.258 | 0.17 | 0.128 | 0.193 | 0.181 | 0.647 | 0.543 | 0.606 | 0.62 | 0.694 | 0.697 | 0.562 | – | 0.56 | 0.502 |
